Test results published in patent publication US20080187512A1, “Treatment for spinal muscular atrophy” (Academia Sinica, priority 2007, published 2008).

Columns and labels:
Type in all cases: cell-based, mouse
[1] = tested on: Stat6 (pT641); experiment: Signaling pathway screen in SMN2-NSC34 cells
[2] = tested on: Stat3 (pY705); experiment: Signaling pathway screen in SMN2-NSC34 cells
[3] = tested on: ERK1/2 (pT202/pY204); experiment: Signaling pathway screen in SMN2-NSC34 cells
[4] = tested on: Stat5 (pT694); experiment: Signaling pathway screen in SMN2-NSC34 cells; parameters: Stat5 (pT694) cellular response: key: −: decreasing; +/−: no activation; +: slight activation; ++: minor activation; +++: significant activation; details: SMN2-NSC34 cells; for phosphorylation level of Stat5 increased compared to control cells: treatment for 4 hours, α-tubulin internal control
Experimental: (§1) Western blot analysis. Cells treated by dsRNA, compounds or Stat5A1*6 transfected were detached by scraping, pelletting and rinsing in PBS. Cell pellets were collected after centrifugation and lysed on ice in modified RIPA buffer (50 mM Tris-HCl (pH7.4), 1% NP-40, 0.25% deoxycholic acid, 0.15M NaCl, 1 mM EDTA, 1 mM PMSF/NaF/sodium orthovanadate, and protease inhibitors cocktail (Roche, Mannheim, Germany) for 30 min. After centrifugation, the supernatants were collected and kept frozen at −20° C. Protein concentrations were determined by Bio-Rad protein assay method. For Western blot analysis, protein samples were boiled for 5 min and electrophoresed on 8% or 10% SDS-polyacrylamide gel in a 1× running buffer (25 mM Tris, 192 mM glycine, 3.4 mM SDS, pH 8.3) and subsequently electrotransferred to Polyvinylidene Fluoride tansfer membrane (Pall, Pensacola, Fla.) using a TE 22 mini-tank transfer unit (Amersham Biosciences, San Francisco, Calif.) at 35 volts overnight in transfer buffer (25 mM Tris, 192 mM glycine, 20% methanol, pH8.3). The blotting membranes were incubated in blocking solution (PBS, 5% non-fat milk, 0.2% Tween-20) for 1 hour at room temperature, and then incubated in the same solution with the primary antibody (human-specific SMN/1:1000; SMN/1:5000, Transduction Laboratories, Lexington, Ky.; phospho-Stat5a/b/1:1000, Cell signaling, Beverly, Mass.; phospho-Jak2/1:1000, Upstate, Lake Placid, N.Y.; Flag BioM2/1:1000, Sigma, St. Louis, MO; c-myc/1:200, Santa Cruz Biotech, Santa Cruz, Calif.; α-Tubilin/1:10000, Upstate, Lake Placid, N.Y., MO), overnight at 4° C. The membranes were washed and incubated in the blocking solution with the proper HRP-conjugated secondary antibody at 1/5000 dilution (Chemicon, Temecula, Calif.) for 1 hour at room temperature. After washing three times in PBS containing 0.1% Tween-20, the signals were visualized by autoradiography (Fuji Medical X-ray film, Fuji Photos, Tokyo) using enhanced chemi-luminescence (ECL detection system; Perkin-Elmer, Boston, Calif.). Western blot quantification was performed by scanning the auto-radiographs with a computerized densitometer. Signal intensities were determined by densitometry analysis (Fuji film LAS-1000 plus pictography) using the program Phoreticx 1D (Phoreticx International).
(§2) Therefore, TSA, aclarubicin and sodium vanadate all induce the activation of Stat5A in motor neuron-like NSC34 cells.

[5] = tested on: P38 (pT180/pY182); experiment: Signaling pathway screen in SMN2-NSC34 cells
[6] = tested on: SMN2; experiment: SMN2 splicing pattern, semi-quantitative RT-PCR in SMA-like MEFs; parameters: key to SMN2 splicing pattern MEF: −: no effect; +: effective; +++: most effective; details: SMA-like MEFs; for SMN2 splicing pattern MEF: TSA 10 nM, sodium butyrate 25 mM, aclarubicin 80 nM, sodium vanadate 50 μM; for influence on SMN2 expression: time-course RT-PCR
[7] = tested on: Stat1 (pY701); experiment: Signaling pathway screen in SMN2-NSC34 cells
[8] = tested on: Jak2 (pY1007/pY1008); experiment: Signaling pathway screen in SMN2-NSC34 cells; details: for Jak2 activation: 2-4 hours after treatment; for Jak2 (pY1007/pY1008) cellular response: SMN2-NSC34 cells; as to Jak2 (pY1007/pY1008) cellular response: key: −: decreasing; +/−: no activation; +: slight activation; ++: minor activation; +++: significant activation
Experimental: as §1, §2

[9] = tested on: Stat2 (pY705); experiment: Signaling pathway screen in SMN2-NSC34 cells
[10] = tested on: SMN2; experiment: SMN2 splicing pattern, semi-quantitative RT-PCR in SMN2-NSC34 cells; parameters: key to SMN2 splicing pattern SMN2-NSC34: −: no effect; +: effective; +++: most effective; details: SMN2-NSC34 cells; TSA 10 nM, sodium butyrate 25 mM, aclarubicin 80 nM, sodium vanadate 100 μM
Experimental: Cell culture and chemical/dsRNA treatment. Mouse embryonic fibroblasts (MEFs) were prepared using the standard protocol. Briefly, E13.5 day embryo was isolated; the uterine deciduas were cut away, and the yolk sac was removed. The embryo was then scraped out to remove non-fibroblastic tissue, and the head severed for genotyping. Embryo body was minced in 0.25% Trypsin-EDTA and incubated for 30 min. It was then added to MEF culture media, and the cell suspension spun for ˜5 min at 1,000 rpm in the tissue culture centrifuge to pellet cells. The supernatant was aspirated off and the cell pellet immediately resuspended in 10 mL of fresh MEF culture media. The MEFs were allowed to reach confluency so the cells could be passaged for further experiments. Cultured MEFs and SMN2-NSC34 cells were maintained in Dulbecco's modified Eagle medium (Invitrogen, Carlsbad, Calif.) containing 10% heat-inactivated fetal bovine serum (Hyclone, Logan, Utah) and 1% penicillin-streptomycin (Invitrogen, Carlsbad, Calif.) and were incubated at 37° C. in a 5% CO2 humidified atmosphere. The cells were plated the day preceding treatment with each chemical and harvested at the indicated time.
Semi-quantitative PCR/RT-PCR. The genomic DNA from E13.5 SMA embryos was extracted. A specific primer pair, SMN forward 5′-[…]-3′ (SEQ ID NO:21) and SMN backward 5′-[…]-3′ (SEQ ID NO:22), was designed for recognition of both murine Smn and human SMN2. The PCR program initially started with a 95° C. denaturation for 10 min, followed by 19 to 26 cycles of 95° C./1 min. 53° C./1.5 min, 72° C./2 min to assay the linear range for both Smn and SMN2. For RT-PCR assay, total RNA was extracted at indicated time points from SMN2-NSC34 cells with sodium vanadate, TSA, and aclarubicin treatment or with an increasing amount of Stat5A1*6 transfection by using the TRizol reagent (Invitrogen, Carlsbad, Calif.). To amplify the exon7 inclusion/exclusion form of SMN2 transcripts, RT-PCR were performed using a primer set P5P6 as previously described (15). The transcript from the mouse glyceraldehyde-3-phosphate dehydrogenase (Gapdh) gene or the β-Actin gene was amplified using the primer pairs: Gapdh forward: 5′-[…]-3′ (SEQ ID NO:23), and backward: 5′-[…]-3′ (SEQ ID NO:24) (56° C.), and β-Actin forward: 5′-[…]-3′ (SEQ ID NO:25), and backward 5′-[…]-3′ (SEQ ID NO:26) (59° C.), and this allowed control of equal amounts of template. […] The gel images were digitally captured with a CCD camera and analyzed with the Alphalmager™. […] Relative total SMN2 transcript levels were determined from Stat5A1*6 transfected SMN2-NSC34 cells in a minimum of three independent experiments. Differences in ratios were determined to be significant by an independent two-tailed t-test, with *, P<0.05, **, P<0.005, ***, p<0.001.

[11] = tested on: JNK (pT183/pY185); experiment: Signaling pathway screen in SMN2-NSC34 cells

## CC[C@@]1(O)C[C@H](O[C@H]2C[C@H](N(C)C)[C@H](O[C@H]3C[C@H](O)[C@H](O[C@H]4CCC(=O)[C@H](C)O4)[C@H](C)O3)[C@H](C)O2)c2c(cc3c(c2O)C(=O)c2c(O)cccc2C3=O)[C@H]1C(=O)OC [Aclarubicin]
[1]; 4 hrs
  Stat6 (pT641) cellular response: +/−
[1]; 8 hrs
  Stat6 (pT641) cellular response: −
[2]; 4 hrs
  Stat3 (pY705) cellular response: +
[2]; 8 hrs
  Stat3 (pY705) cellular response: ++
[3]; 4 hrs
  ERK1/2 (pT202/pY204) cellular response: +/−
[3]; 8 hrs
  ERK1/2 (pT202/pY204) cellular response: +/−
[4]; 4 hrs
  Stat5 (pT694) cellular response: ++
[4]
  Stat5 phosphorylation status at 8 hours: remained activated
  phosphorylation level of Stat5 increased compared to control cells: about 2 fold
[4]; 8 hrs
  Stat5 (pT694) cellular response: +++
[5]; 4 hrs
  P38 (pT180/pY182) cellular response: +/−
[5]; 8 hrs
  P38 (pT180/pY182) cellular response: +/−
[6]
  SMN2 splicing pattern MEF: +
  influence on SMN2 expression: found to influence SMN2 expression
[7]; 4 hrs
  Stat1 (pY701) cellular response: +/−
[7]; 8 hrs
  Stat1 (pY701) cellular response: +/−
[8]
  Jak2 activation: found activated
[8]; 4 hrs
  Jak2 (pY1007/pY1008) cellular response: +
[8]; 8 hrs
  Jak2 (pY1007/pY1008) cellular response: +/−
[9]; 4 hrs
  Stat2 (pY705) cellular response: +
[9]; 8 hrs
  Stat2 (pY705) cellular response: +/−

## CC1=C(/C=C/C(C)=C/C=C/C(C)=C/C(=O)O)C(C)(C)CCC1 [All-trans retinoic acid]
[6]
  SMN2 splicing pattern MEF: −

## NC(=O)NO [Hydroxyurea]
[6]
  SMN2 splicing pattern MEF: −

## CC(=O)N[C@@H](CS)C(=O)O [N-Acetyl-L-cysteine]
[6]
  SMN2 splicing pattern MEF: −

## CCCCCCCCCCCCCC(=O)O[C@@H]1[C@@H](C)[C@@]2(O)[C@@H](C=C(CO)C[C@]3(O)C(=O)C(C)=C[C@@H]23)[C@@H]2C(C)(C)[C@]12OC(C)=O [Phorbol-12-myristate-13-acetate]
[6]
  SMN2 splicing pattern MEF: −

## CCCC(=O)[O-].[Na+] [Sodium butyrate]
[10]
  SMN2 splicing pattern SMN2-NSC34: +
[6]
  SMN2 splicing pattern MEF: +

## CC(/C=C/C(=O)NO)=C\[C@@H](C)C(=O)c1ccc(N(C)C)cc1 [Trichostatin A (TSA), Trichostatin A]
[1]; 4 hrs
  Stat6 (pT641) cellular response: +/−
[1]; 8 hrs
  Stat6 (pT641) cellular response: −
[2]; 4 hrs
  Stat3 (pY705) cellular response: +
[2]; 8 hrs
  Stat3 (pY705) cellular response: ++
[11]; 4 hrs
  JNK (pT183/pY185) cellular response: +/−
[11]; 8 hrs
  JNK (pT183/pY185) cellular response: +
[3]; 4 hrs
  ERK1/2 (pT202/pY204) cellular response: +
[3]; 8 hrs
  ERK1/2 (pT202/pY204) cellular response: +
[4]; 4 hrs
  Stat5 (pT694) cellular response: ++
[4]
  Stat5 phosphorylation status at 8 hours: remained activated
  phosphorylation level of Stat5 increased compared to control cells: about 2 fold
[4]; 8 hrs
  Stat5 (pT694) cellular response: +++
[5]; 4 hrs
  P38 (pT180/pY182) cellular response: +/−
[5]; 8 hrs
  P38 (pT180/pY182) cellular response: +
[6]
  SMN2 splicing pattern MEF: +
  influence on SMN2 expression: found to influence SMN2 expression
[7]; 4 hrs
  Stat1 (pY701) cellular response: −
[7]; 8 hrs
  Stat1 (pY701) cellular response: −
[8]
  Jak2 activation: found activated
[8]; 4 hrs
  Jak2 (pY1007/pY1008) cellular response: +
[8]; 8 hrs
  Jak2 (pY1007/pY1008) cellular response: +/−
[9]; 4 hrs
  Stat2 (pY705) cellular response: +/−
[9]; 8 hrs
  Stat2 (pY705) cellular response: +/−
